Laboratory results published in patent US20240082222A1, “4-CHLORO-N-[2-[(4-CHLOROPHENYL)METHYL]-3-OXO-1,2,4-THIADIAZOL-5-YL]BENZAMIDE FOR USE IN MEDICINE” (Betagenon AB, priority 2021, published 2024).
Several values for one entry are separate records, joined by “and”; a condition that tells them apart may be missing. Equal values may be shown once. Where a name gives a salt, the structure may show the parent alone. Read-outs that look alike come from different tables or passages of the source.

Assay: Pharmacokinetic study in humans, sodium salt tablets, multiple dose (Example 3)
Type: in vivo, human
Protocol: An open, randomised, parallel-group study was conducted to evaluate the exposure and safety of 4-chloro-N-[2-[(4-chlorophenyl)methyl]-3-oxo-1,2,4-thiadiazol-5-yl]benzamide sodium salt tablets in doses of 212.12 mg and 424.24 mg (equivalent to 200 mg and 400 mg doses of 4-chloro-N-[2-[(4-chlorophenyl)methyl]-3-oxo-1,2,4-thiadiazol-5-yl]benzamide) at steady state in healthy volunteers (hereafter referred to as subjects).
Each “400 mg” tablet contained 424.24 mg of a sodium salt of 4-chloro-N-[2-[(4-chlorophenyl)methyl]-3-oxo-1,2,4-thiadiazol-5-yl]benzamide (Compound of formula II) which corresponds to 400 mg of the parent compound 4-chloro-N-[2-[(4-chlorophenyl)methyl]-3-oxo-1,2,4-thiadiazol-5-yl]benzamide.
Twenty (20) subjects were randomised (1:1) to treatment with either 200 mg (1 tablet of 200 mg) or 400 mg (1 tablet of 400 mg) of the test substance.
A screening visit (Visit 1) was performed within 28 days before randomisation and the start of IMP administration. The subjects arrived at the research clinic on Day 1 (Visit 2), randomised, and received the first administration of the test substance (200 mg or 400 mg as randomised).
The subjects returned to the clinic in the morning of Day 2 (Visit 3) for pre-dose PK sampling and subsequent administration of the test substance.
Before leaving the clinic, the subjects were provided with the test substance for 18 days once daily self-administration at home (Day 3 to Day 20).
After 18 days of home-based self-administration of the test substance, the subjects returned to the clinic in the morning of Day 21 (Visit 5) for pre-dose PK sampling and subsequent administration of the last dose of the test substance. The subjects remained at the clinic for at least 8 hours post-dose for safety assessments and additional PK sampling. In the morning of Day 22 (Visit 6), the subjects came for a last visit to the clinic for a final PK sample 24 hours after the last dose.
Venous blood samples (approximately 5 mL) for the determination of plasma concentrations of 4-chloro-N-[2-[(4-chlorophenyl)methyl]-3-oxo-1,2,4-thiadiazol-5-yl]benzamide after administration of the test substance were collected through an indwelling venous catheter on Days 2, 21 and 22.
The blood samples were collected in pre-labelled Li-Heparin tubes. All the collected blood samples were be centrifuged at 1500 G for 10 minutes to separate plasma within 60 minutes from the sample is drawn. The separated plasma from each blood sample was be divided into 2 aliquots in pre-labelled polypropylene cryotubes (A and B samples, approximately 750 μL in each tube) and frozen at <−70° C.
Samples for determination of plasma concentrations of 4-chloro-N-[2-[(4-chlorophenyl)methyl]-3-oxo-1,2,4-thiadiazol-5-yl]benzamide were analysed by Lablytica Life Science AB, Uppsala, Sweden by means of a validated LS-MS/MS method.
The data of plasma concentration to respective time points for the analyte (4-chloro-N-[2-[(4-chlorophenyl)methyl]-3-oxo-1,2,4-thiadiazol-5-yl]benzamide) were used for the pharmacokinetic analysis. Pharmacokinetic analysis was performed using non-compartmental analysis (NCA) module of Phoenix WinNonlin 8.1 software to determine the following pharmacokinetic parameters after multiple dose administration of test substance.
Primary endpoint: • Cmax, AUC0-last, Tmax at steady state Day 21 in each dose group.

[1] = 200 mg Dose Group, tablet once daily, Day 21, individual subjects, listed as O304 Na salt
[2] = 212 mg sodium salt in tablet form
[3] = 400 mg Dose Group, tablet once daily, Day 21, individual subjects, listed as O304 Na salt

O=C(Nc1nc(=O)n(Cc2ccc(Cl)cc2)s1)c1ccc(Cl)cc1 [Compound of formula II, sodium salt of 4-chloro-N-[2-[(4-chlorophenyl)methyl]-3-oxo-1,2,4-thiadiazol-5-yl]benzamide]
Tlast (200 mg Dose Group, tablet once daily, Day 21, Mean): 24.01 h | Tlast (200 mg Dose Group, tablet once daily, Day 21, Median): 24.0 h | Clast [1]: 80.1 µg/mL and 109 µg/mL and 144 µg/mL and 51.7 µg/mL and 76.9 µg/mL and 62.3 µg/mL and 65.1 µg/mL and 81.3 µg/mL and 53.4 µg/mL | Tlast [1]: 24.0 h (8×) and 24.1 h | Tmax [1]: 24.0 h and 0.00 h and 2.00 h and 4.00 h | increase in systemic accumulation from Day 1 to Day 21 [2]: approximately seven-fold | increase in systemic exposure, tablet compared to capsules containing 200 mg [2]: up to two-fold | Tlast (400 mg Dose Group, tablet once daily, Day 21, Mean): 24.07 h | Tlast (400 mg Dose Group, tablet once daily, Day 21, Median): 24.0 h | AUClast [3]: 4790 µg·h/mL and 3600 µg·h/mL and 2450 µg·h/mL and 2950 µg·h/mL and 3550 µg·h/mL and 2800 µg·h/mL and 2460 µg·h/mL | Clast [3]: 116 µg/mL and 201 µg/mL and 151 µg/mL and 96.7 µg/mL and 135 µg/mL and 144 µg/mL and 111 µg/mL and 106 µg/mL and 100 µg/mL | Cmax [3]: 201 µg/mL and 169 µg/mL and 106 µg/mL and 135 µg/mL and 168 µg/mL and 124 µg/mL and 105 µg/mL | Tlast [3]: 24.0 h (6×) and 24.4 h and 24.1 h (2×) | Tmax [3]: 24.4 h and 4.00 h and 8.02 h and 24.1 h and 24.0 h | increase in systemic accumulation from Day 1 to Day 21 (424 mg sodium salt in tablet form): approximately five-fold | AUC(0-t) (human, plasma, oral, 200 mg, 200 mg Dose Group, tablet once daily, Day 21, Mean): 1940 µg·h/mL | concentration at 24 h (human, plasma, oral, 200 mg, 200 mg Dose Group, tablet once daily, Day 21, Mean, read-out: Clast): 80.4 µg/mL | Cmax (human, plasma, oral, 200 mg, 200 mg Dose Group, tablet once daily, Day 21, Mean, read-out: Cmax): 86.8 µg/mL | Tmax (human, plasma, oral, 200 mg, 200 mg Dose Group, tablet once daily, Day 21, Mean, read-out: Tmax): 10.9 h | AUC(0-t) (human, plasma, oral, 200 mg, 200 mg Dose Group, tablet once daily, Day 21, Median): 1720 µg·h/mL | concentration at 24 h (human, plasma, oral, 200 mg, 200 mg Dose Group, tablet once daily, Day 21, Median, read-out: Clast): 76.9 µg/mL | Cmax (human, plasma, oral, 200 mg, 200 mg Dose Group, tablet once daily, Day 21, Median, read-out: Cmax): 77.1 µg/mL | Tmax (human, plasma, oral, 200 mg, 200 mg Dose Group, tablet once daily, Day 21, Median, read-out: Tmax): 8 h | concentration at 24 h (human, plasma, oral, 200 mg, 200 mg dose group (212.12 mg sodium salt tablet once daily), 24 h after dose of Day 1, read-out: Clast at 24 hours, Mean): 11.4 µg/mL | concentration at 24 h (human, plasma, oral, 200 mg, 200 mg dose group (212.12 mg sodium salt tablet once daily), 24 h after dose of Day 1, read-out: Clast at 24 hours, Median): 11.2 µg/mL | concentration at 24 h (human, plasma, oral, 200 mg, 200 mg dose group (212.12 mg sodium salt tablet once daily), 24 h after dose of Day 21, read-out: Clast at 24 hours, Mean): 80.4 µg/mL | concentration at 24 h (human, plasma, oral, 200 mg, 200 mg dose group (212.12 mg sodium salt tablet once daily), 24 h after dose of Day 21, read-out: Clast at 24 hours, Median): 76.9 µg/mL | AUC(0-t) (human, plasma, oral, 400 mg, 400 mg Dose Group, tablet once daily, Day 21, Mean): 3110 µg·h/mL | concentration at 24 h (human, plasma, oral, 400 mg, 400 mg Dose Group, tablet once daily, Day 21, Mean, read-out: Clast): 129 µg/mL | Cmax (human, plasma, oral, 400 mg, 400 mg Dose Group, tablet once daily, Day 21, Mean, read-out: Cmax): 138 µg/mL | Tmax (human, plasma, oral, 400 mg, 400 mg Dose Group, tablet once daily, Day 21, Mean, read-out: Tmax): 11.2 h | AUC(0-t) (human, plasma, oral, 400 mg, 400 mg Dose Group, tablet once daily, Day 21, Median): 2930 µg·h/mL | concentration at 24 h (human, plasma, oral, 400 mg, 400 mg Dose Group, tablet once daily, Day 21, Median, read-out: Clast): 116 µg/mL | Cmax (human, plasma, oral, 400 mg, 400 mg Dose Group, tablet once daily, Day 21, Median, read-out: Cmax): 132 µg/mL | Tmax (human, plasma, oral, 400 mg, 400 mg Dose Group, tablet once daily, Day 21, Median, read-out: Tmax): 4.02 h | AUC(0-t) (human, plasma, oral, 400 mg, 400 mg Dose Group, tablet once daily, Day 21, individual subjects): 2930 µg·h/mL | Cmax (human, plasma, oral, 400 mg, 400 mg Dose Group, tablet once daily, Day 21, individual subjects, read-out: Cmax): 132 µg/mL | concentration at 24 h (human, plasma, oral, 400 mg, 400 mg dose group (424.24 mg sodium salt tablet once daily), 24 h after dose of Day 1, read-out: Clast at 24 hours, Mean): 24.9 µg/mL | concentration at 24 h (human, plasma, oral, 400 mg, 400 mg dose group (424.24 mg sodium salt tablet once daily), 24 h after dose of Day 1, read-out: Clast at 24 hours, Median): 21.5 µg/mL | concentration at 24 h (human, plasma, oral, 400 mg, 400 mg dose group (424.24 mg sodium salt tablet once daily), 24 h after dose of Day 21, read-out: Clast at 24 hours, Mean): 129 µg/mL | concentration at 24 h (human, plasma, oral, 400 mg, 400 mg dose group (424.24 mg sodium salt tablet once daily), 24 h after dose of Day 21, read-out: Clast at 24 hours, Median): 116 µg/mL | peak blood plasma concentration (repeated dosing of 212 mg in the form of a tablet): ≥ 85 µg/mL | accumulation in the blood plasma after repeat dosing (tablets, once daily): substantial accumulation
